Values quoted from earlier work as cited in patent US20040175342A1, “Process of making and using composition containing oxidation-sensitive hydrophilic active principle and maleic anhydride copolymer” (L'OREAL, priority 2002, published 2004).

What was measured:
[1] = system: keratinocytes
[2] = system: reconstructed epidermides
[3] = system: reconstructed epidermides; details: after treatment

Row | bioavailability | SMILES | effect on differentiation of keratinocytes [1] | synthesis of ceramides [2] | barrier function of reconstructed epidermides [3]
1 |  | O=C1O[C@H]([C@@H](O)CO)C(O)=C1O [Ascorbic acid, ascorbic acid] | prodifferentiating effect | increase | improved
2 |  | O=C1O[C@H]([C@@H](O)CO)C(O)=C1O[C@H]1O[C@H](CO)[C@@H](O)[C@H](O)[C@H]1O [ascorbyl glucoside] |  | this effect has also been demonstrated | 
3 | very low | O=C1O[C@H]([C@@H](O)CO)C([O-])=C1OP(=O)([O-])[O-].O=C1O[C@H]([C@@H](O)CO)C([O-])=C1OP(=O)([O-])[O-].[Mg+2].[Mg+2].[Mg+2] [magnesium ascorbyl phosphate] |  | this effect has also been demonstrated | 
